Experimental findings from patent US20140241990A1, “METHODS OF USING ADENOSINE A1 RECEPTOR ACTIVATION FOR TREATING DEPRESSION” (TUFTS UNIVERSITY, priority 2011, published 2014) are described below.

“Also recorded” adds a separate entry of the source. Bounds are passed on as bounds.

The subject of test [1] is C57Bl/6J mice. Description: Forced swim test (FST). It is filed as in vivo, mouse. Conditions: for duration of reduced immobility in forced swim test after onset of administration: cohorts tested 12, 36, 84 and 108 hours after first treatment. As to the method: The forced swim test is typically performed in a quiet experimental room as described in previous reports (Porsolt, R. et al., Arch. Int. Pharmacodyn. Ther., 229:327-336, 1977). For a typical test, animals are placed, for example, into a plexiglass cylinder (25 cm height, 25 cm diameter) containing 20 cm height of water at 23-25 C for 10 min. The animals typically display very fast swimming initially, lasting 1-2 min, followed by increasing immobility. Immobile time is measured during the last 4 min of the total period for statistical analysis. The animals are videotaped and movements are digitized from above. Immobility can be automatically scored, for example, using Ethovision (Noldus Information Technology Inc., Leesburg, U.S.A.).
The forced swim test (FST) was performed in a quiet experimental room. Animals where placed into a Plexiglass cylinder (25 cm height, 25 cm diameter) containing 20 cm height of water at 23-25° C. for 10 min. […] Immobile time was measured during the last 4 min of the total period for statistical analysis. The animals were videotaped and movements were digitized from above. Immobility was automatically scored using Ethovision (Noldus Information Technology Inc., Leesburg, U.S.A.). Results from tracking analysis were analyzed using ANOVA to compare means.

For test [2], the system named is mice. Description: Open field test (locomotor activity). It is filed as in vivo, mouse. The settings on record: wildtype mice treated i.c.v. As to the method:
The open field test was performed in accordance with the […] resource phenotyping protocol (Brown, S. et al., Nat. Genet., 37:1155, 2005). Open field behavior of mice was videorecorded from above, and assessed using Ethovision. Results from tracking analysis were analyzed using ANOVA to compare means.

The subject of test [3] is mice. Description: Sucrose consumption test (anhedonia). The class given is in vivo, mouse. The settings on record: i.c.v. CCPA, three bolus injections at ZT=0, 3 and 6; vehicle baseline 30.55±3.60 g/kg; p=0.008. The method, then: Sucrose consumption experiments can be conducted known to one of skill in the art. For a typical test, mice are gradually acclimatized to increasing durations of water deprivation (0, 4, 8, 12, and 16 hours) and i.c.v. infusion of saline over the course of five days to minimize the stressfulness of the testing. On the sixth day, instead of receiving water at the end of the deprivation period, mice are given a 1% v/w solution of sucrose. This is repeated for three days (days 6-9) to establish baseline sucrose consumption levels. During the deprivation period preceding day 10, mice are given i.c.v. infusions of the identified test compound, followed by the presentation of sucrose as during baseline consumption testing. The average baseline (saline infusion) sucrose consumption is then compared to the average sucrose consumption following test compound infusion. Results are analyzed using a Student's t-test to compare means.
Sucrose consumption was conducted (Papp, M. et al., Psychopharmacology (Berl.), 104:255-9, 1991). After the acclimatization and habituation period mice were given access to sucrose for three days (days 6-9) to establish baseline sucrose consumption levels. Mice were then given i.c.v. infusions of CCPA administered as a series of three bolus injections at ZT=0, 3 and 6, followed by the presentation of sucrose (day 10). […]

For test [4], the system named is mice. Description: EEG/EMG recording, vigilance state scoring and power spectra. It is filed as in vivo, mouse. An excerpt:
Mice were implanted with EEG and EMG electrodes under ketamine/xylazine anesthesia. After 5-7 days of post-operative recovery, lightweight recording cables were connected to the head implants and mice were placed in cylindrical polypropylene containers containing nest material, water and food ad libitum. Mice were acclimated to the sleep chamber for 5-7 days (12:12 light-dark (LD) cycle; lights on at 8 AM). EEGs and EMGs were then collected on a Pinnacle Technologies system and digitized at 1000 Hz. Following acclimation, baseline 24 h recordings were made.
NonREM sleep (“NREM” sleep), REM sleep and wake were determined by an experimenter blind to experimental condition. On the baseline day, the amount of each state (expressed as a percentage of total recording time) and the duration of individual sleep and wake episodes were computed. Transitions between NREM sleep and REM sleep were also measured during the light phase. To investigate sleep the beneficial effects of sleep deprivation mice, mice were sleep deprived (SD) from 8 a.m. to 8 p.m. at the beginning of the major sleep period (light phase) using a Pinnacle sleep deprivation chamber. All EEG data were analyzed by normalizing each data point to the average power of the EEG from 0.5 to 40 Hz (FIG. 4), and by normalizing each data point (+12 hr, +36 hr, +84 hr, +108 hr) to the corresponding vehicle data points (FIG. 8).
To investigate whether A1R activation alone is capable of altering the sleep architecture and mimicking the effects of sleep deprivation, the adenosine receptor agonist 2-chloro-N(6)-cyclopentyladenosine (CCPA; […]) was administered via i.c.v. cannulae. Following recovery and one week of habituation to the headstage, EEG activity was recorded from mice with i.c.v. saline vehicle infusion for two days to establish baseline EEG activity patterns. The EEG changes following injection of the A1R agonist CCPA were monitored. […] The normalized power from 0.5 to 4.0 Hz was also analyzed, comparing saline baseline to CCPA infusion (FIG. 4D).
Adenosine agonists cause a sustained enhancement of delta power during wakefulness. As a final step in testing the antidepressive actions of adenosine activation of A1Rs was determined to be sufficient to mimic the effects of sleep deprivation on depressive-like behaviors. […] The adenosine receptor agonist 2-chloro-N(6)-cyclopentyladenosine (CCPA; 500 nM) was delivered i.c.v. while performing EEG/EMG recordings.

Test [5] deals with mice. Description: Rotorod test. It is filed as in vivo, mouse. Conditions: CCPA versus vehicle. An excerpt:
The rotorod used a rotating cylinder that was 4 cm in diameter, fixed 35 cm above the ground and enclosed by transparent Plexiglas. The rotorod cylinder was covered in textured rubber coating, which facilitates traction. A small electric motor provided power to turn the rotorod via a rubber belt. The rotorod was set to rotate once every 5 s.

Test [6] deals with C57Bl/6J mice. Description: Tail suspension test (TST). The class given is in vivo, mouse. Conditions: CPT 4 mM i.c.v. The method, then:
Results from tracking analysis were analyzed using ANOVA to compare means.

The next test addresses T1, A1R (Mus musculus, UniProt Q60612).
T1 construct: from tissue; host or cells: acute mouse hippocampal slices (C57Bl/6J background; wild type and dnSNARE mice)
T1 sequence (Q60612 1-326): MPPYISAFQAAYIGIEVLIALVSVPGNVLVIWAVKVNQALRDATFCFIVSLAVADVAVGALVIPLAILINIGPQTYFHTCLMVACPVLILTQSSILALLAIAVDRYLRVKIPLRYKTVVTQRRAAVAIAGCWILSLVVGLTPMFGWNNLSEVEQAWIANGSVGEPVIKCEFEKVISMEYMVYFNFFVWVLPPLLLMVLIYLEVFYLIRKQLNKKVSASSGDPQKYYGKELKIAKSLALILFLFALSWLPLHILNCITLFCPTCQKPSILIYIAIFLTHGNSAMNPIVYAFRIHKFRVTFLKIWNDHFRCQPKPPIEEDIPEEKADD
Description: fEPSP enhancement at Schaeffer collateral synapse of hippocampal area CA1 in acute slices (adenosine tone). The class given is cell-based. Conditions: CPT 200 nM. The method, then:
Mice were briefly anaesthetized with isofluorane and then decapitated, and slices were prepared (Manzoni, O. et al., Science, 265:2098-101, 1994). The brain was rapidly extracted in cold cutting solution (124 mM NaCl, 26 mM NaHCO3, 1 mM NaHPO4, 10 mM Glucose, 1 mM sodium pyruvate, 0.6 mM ascorbate, 2.9 mM KCl, 1 mM CaCl2, 2 mM MgCl2) bubbled continuously with a 95% O2 5% CO2 gas mixture. Slices 310 μm thick were cut using a Leica VT 1000S Vibratome. Isolated hippocampal slices were transferred to a bath containing continuously oxygenated cutting solution and incubated at 30 C for a 1.5 hour recovery period. Extracellular recordings were conducted in artificial cerebrospinal fluid (aCSF, 124 mM NaCl, 26 mM NaHCO3, 1 mM NaHPO4, 10 mM Glucose, 1 mM sodium pyruvate, 2.9 mM KCl, 2 mM CaCl2, 1 mM MgCl2) continuously superfused at 1.2 mL/minute and maintained at 32.8 C. Extracellular stimulation were delivered using a 125 μm concentric Pt—Ir electrode in unipolar mode with a pulse width of 0.1 ms.
A relative measure of the extracellular adenosine level can be obtained by determining the proportional enhancement of synaptic transmission in response to the application of the A1R antagonist 8-cyclopentyltheophylline (CPT; 200 nM) an approach that has been validated using electrochemical biosensors (Schmitt, L. et al., J. Neurosci., 32:4417-25, 2012).
The physiological mechanisms underlying the effects of sleep deprivation was investigated by asking whether sleep deprivation leads to an elevation of extracellular adenosine. A relative measure of the extracellular adenosine level can be obtained by determining the proportional enhancement of synaptic transmission in response to the application of the A1R antagonist 8-cyclopentyltheophylline (CPT; 200 nM). Independent measurements of extracellular adenosine using electrochemical biosensors have validated this approach. Field excitatory postsynaptic potentials (fEPSP) were measured at the Schaeffer collateral synapse of hippocampal area CA1 before and following application of CPT.

Setting [7] is: CCPA 500 nm i.c.v., percentage of recording time.

`OCC1OC(n2cnc3c(NC4CCCC4)nc(Cl)nc32)C(O)C1O` (centres unmarked) [CCPA, 2-(2-chloro-6-(cyclopentylamino)-9H-purin-9-yl)-5-(hydroxymethyl)tetrahydrofuran-3,4-diol]: the “beneficial effects in forced swim test 3 and 5 days after infusion” value with C57Bl/6J mice [1] (3 and 5 days after infusion) was “no longer observed”. Moreover, the “effect on immobile time, forced swim test” value with C57Bl/6J mice [1] (CCPA i.c.v. (ZT=0, 3 and 6), tested at ZT=12) was “decreased immobile time; also recorded: reduction in immobile time; also recorded: significantly reduces immobility”. For the same compound, the “duration of reduced immobility in forced swim test after onset of administration” value in the test on C57Bl/6J mice [1] was found to be 36 h. For the same compound, in the test with C57Bl/6J mice [1] (listed as COPA), the “duration of reduced immobility in forced swim test after onset of administration” value is given as “up to 36 hours”. For the same compound, the “duration of beneficial effects in forced swim test” value in the test with C57Bl/6J mice [1] (three i.c.v. injections spaced evenly across a 12 hour period, cohorts at 24 hours, +1, +3, +5 days) stood at 24 h. Also, in the test with mice [2], the “locomotor activity / total distance traveled in open field” value was “without accompanying changes in locomotor activity; also recorded: do not differ”. The same compound displayed a sucrose consumption in the test on mice [3] of 51.45 ± 6.35 g/kg. For the same compound, the “percent wake at 12 h after administration” value with mice [4] (12 h (ZT 12) after CCPA) was “significantly greater percentage of time awake; also recorded: increased percent wake”. Also, the “increased percent wake at 36 h after administration” value in the test on mice [4] (36 h following CCPA) is “no longer present”. For the same compound, the “EEG power spectra compared to baseline saline” value in the test on mice [4] (CCPA 500 nm i.c.v.) is given as “dramatic increase in the power spectra”. Besides, in the test on mice [4] (setting [7]), the “duration of REM sleep” value is given as 18.13±1.30%, the “duration of non-REM sleep” value is 48.75±1.85% and the duration of wake is listed as 31.38±1.93%. The “delta power (0.5-4 Hz) during wakefulness after mice awoke” value in the test on mice [4] (CCPA i.c.v. ZT=0, 3 and 6, p<0.001) is reported as “prominent increase in delta power”. Besides, the “percentage of time awake during administration” value with mice [4] (CCPA i.c.v. infusion, 500 nM) is on record as “transient decrease; also recorded: decreased”. Besides, the “acute effect on delta power” value with mice [4] (acute, during CCPA action) was “reduce delta power”. In the test with mice [4] (reversed by ZT=11, last administration at ZT=6), the “time after last administration by which effects on sleep had reversed” value is ≤ 5 h. In addition, the “time asleep ZT 1 through 10 compared to vehicle” value in the test with mice [4] (three consecutive CCPA infusions (ZT=0, 3, 6), 500 nM i.c.v., p<0.002) is on record as “significantly greater time”. For the same compound, the “latency to fall / locomotor activity in rotorod test” value with mice [5] is “without accompanying changes in locomotor activity; also recorded: do not differ”.
As to `Cn1c(=O)c2[nH]c(C3CCCC3)nc2n(C)c1=O` [CPT, 8-cyclopentyltheophylline], in the test with C57Bl/6J mice [1] (CPT 4 mM i.c.v., no sleep deprivation), the “basal immobility, forced swim test” value came to 176.43 ± 21.77 s. In the test on C57Bl/6J mice [1] (CPT 4 mM i.c.v., sleep deprivation), the “immobility after sleep deprivation, forced swim test” value was 167.70 ± 18.89 s. For the same compound, in the test on C57Bl/6J mice [6] (no sleep deprivation), the “basal immobility, tail suspension test” value turned out to be 187.60 ± 11.46 s. In addition, the “immobility after sleep deprivation, tail suspension test” value with C57Bl/6J mice [6] (sleep deprivation) was found to be 204.00 ± 3.58 s. The “locomotor activity / total distance traveled in open field” value in the test on mice [2] is given as “do not differ”. Also, the “increase in fEPSP (adenosine tone)” value on A1R (WT undisturbed mice, ZT=0) came out at 481.70±85.04%. The “proportional enhancement of fEPSP (adenosine tone)” value on A1R (WT, ZT=12 (end of light phase)) was determined as 128.15±28.91%. Besides, the “adenosine tone (fEPSP enhancement)” value on A1R (after 72 h of sleep deprivation, ZT=0) turned out to be 104.62±18.31%; at A1R (dnSNARE, ZT=0) it was 61.98±16.80%; at A1R (dnSNARE, ZT=12) it was 27.91±5.10%; at A1R (transient total sleep deprivation ZT 0 to ZT 12) it was 367.61±24.95%.
As for `CN(C)CCCN1c2ccccc2CCc2ccccc21` [imipramine], the “immobility in behavioral despair tasks” value in the test on C57Bl/6J mice [1] (14 days of treatment) is reported as “reduces immobility”. In addition, the “time spent immobile, forced swim test” value in the test on C57Bl/6J mice [1] (wildtype littermates, imipramine 20 mg/kg, chronic 14 days) came out at 73.00 ± 9.53 s.
